Reference: patent US7981939B2, “Application of 2-bromide-isovanillin for the manufacture of a medicament for anti-cancer or/and radiation/chemotherapy sensitization” (Institute of Radiation Medicine, Academy of Military …, priority 2005, dated 2011)

What was measured:
[1] = test system: lung cancer cell line A549; assay: Clonogenic assay, 6 days of continuous action, A549; type: cell-based
Description: Human cervical cancer cell line HeLa, human liver cancer cell line HepG2/7221/7402, human ovarian cancer cell line HOC8/A2780, human glioma cell line BT325, lung cancer cell line A549, brain metastatic lung cancer cell line BT72 and normal human hepatic cell line LO2 were all grown in DMEM liquid medium supplemented with 10% newborn calf serum. Human leukemia cell line Jurkat was grown in 1640 medium supplemented with 10% newborn calf serum. The above cell lines were cultured in a CO2 incubator at 5% CO2 at 37° C.
By way of example, human cervical cancer cell line HeLa, lung cancer cell line A549, and ovarian cancer cell lines A2780 and HOC8 were used to determine the killing of cancer cells by 2-bromo-isovanillin for 6 days. Specifically, four groups were formed according to the type of the cancer cells. The cancer cells were diluted as appropriate, and were respectively plated into Petri dishes with a diameter of […], the amount of the cells adjusted depending on the concentration of 2-bromo-isovanillin to be added. Once adherence was achieved, each cell type received dosages of 0, 5, 10, 15, 20, 25, 30 and 35 μmol/L in triplicates. After 6 days of continuous action, the medium was replaced by a drug-free DMEM liquid medium. […] Then the cell clones were counted. The experimental data were expressed as the mean of 2-4 experiments and were plotted as a growth curve of cancer cells.

[2] = test system: human cervical cancer cell line HeLa; assay: Radiosensitizing activity with 2 Gy Co-60 γ radiation, HeLa, MTT assay; type: cell-based
Description: By way of example, human cervical cancer cell line HeLa was used to determine the radiosensitizing activity of 2-bromo-isovanillin.
Specifically, human cervical cancer cells HeLa were divided into six groups, diluted as appropriate, and plated into Petri dishes with a diameter of […]. The amount of cells plated in each Petri dish was 300/500 for 0 Gy group (without Co-60 γ radiation), or 400/800 for 2 Gy group. Once adherence was achieved, three groups were treated with 20 μmol/L 2-bromo-isovanillin (BVAN3208) for 0, 4 and 18 hrs, respectively and then irradiated with Co-60 γ ray at 2 Gy, followed by two weeks under conventional culturing conditions. As to the other three groups, one group was treated with 20 μmol/L 2-bromo-isovanillin (BVAN3208) for 72 hrs and then cultured for two weeks under conventional conditions, one group received irradiation with Co-60 γ ray at 2 Gy and then was cultured for two weeks under conventional conditions, and the remaining group as control received no treatment at all and was cultured for two weeks under conventional conditions. 48 hrs after irradiation with Co-60 γ ray, using MTT assay, the optical density (OD) values at 490 nm were measured and recorded, wherein the magnitude of OD value is indicative of cell number, i.e., cell proliferation. The results are shown in FIG. 5, wherein C represents the control group, R(2 Gy) represents the group treated with Co-60 γ ray alone, BVAN3208 represents the group treated with 20 μmol/L 2-bromo-isovanillin alone, and BVAN3208/0 h R, BVAN3208/4 h R and BVAN3208/18 h R respectively represent the groups treated with 20 μmol/L 2-bromo-isovanillin for 0, 4, 18 hrs before irradiation with Co-60 γ ray. The survival rates of the cancer cells treated with 2 Gy Co-60 γ ray radiation or 20 μmol/L 2-bromo-isovanillin for 72 hrs were 76% and 70%, respectively.

[3] = test system: prostate cancer cell line IB-4; assay: G2/M arrest by flow cytometry, IB-4; type: cell-based; details: IB-4, 40 μmol/L, 24 hrs
Description: By way of example, human liver cancer cell lines HepG2 and 7402, human ovarian cancer cell lines HOC8 and A2780, human glioma cell line BT325, lung cancer cell line A549, brain metastatic lung cancer cell line BT72 and prostate cancer cell line IB-4 were used to investigate the G2/M arresting of solid tumor cells of different tissue origins by 2-bromo-isovanillin as measured by the ratio of cells at G2/M phase. Specifically, the cancer cells were divided into two groups, and were treated with 0 or 40 μmol/L 2-bromo-isovanillin for 24 hours. Then the cells were harvested and analyzed for changes in cell cycle and cell apoptosis by flow cytometry.

[4] = test system: human liver cancer cell line HepG2; assay: Clonogenic assay, HepG2 compared with normal hepatic cells LO2; type: cell-based; details: 5-80 μmol/L, 24 hrs
Description: (§1) By way of example, human liver cancer cell line HepG2 and normal human hepatic cell line LO2 were used to study the inhibitory effect of 2-bromo-isovanillin on the growth of liver cancer cells and normal cells by clonogenic assay. Specifically, five groups were formed according to the drug concentration, and the liver cancer cells HepG2 and normal hepatic cells LO2 were respectively treated with 5, 10, 20, 40 and 80 μmol/L 2-bromo-isovanillin for 24 hrs. Then cell survival was measured by clonogenic assay (FIG. 8). In addition, the cell cycle profile and apoptotic effect were compared using flow cytometry.

[5] = test system: normal human hepatic cell line LO2; assay: Cell cycle profile and apoptosis by flow cytometry, LO2; type: cell-based; details: LO2, 40 μmol/L, 24 hrs
Description: as §1

tumor cells = assay: Tumor inhibition upon administration for 6 consecutive days (summary statement)

SMILES: COc1ccc(C=O)c(Br)c1O [2-bromo-isovanillin, 2-bromo-3-hydroxy-4-methoxybenzaldehyde]
- survival rate ([1]; A549, 20 μmol/L): lower than 10%
- proliferation ([1]; A549, 30 μmol/L): completely inhibited
- survival rate ([2]; 20 μmol/L for 72 hrs alone, no radiation): 70%
- cell survival rate ([2]; 20 μmol/L, 2 Gy radiation 4 hrs after administration): about 51%
- cell survival rate ([2]; 20 μmol/L, 2 Gy radiation 18 hrs after administration): ~21%
- cell survival rate ([2]; 20 μmol/L, 2 Gy radiation immediately (0 h) after administration): about 51%
- sensitization ratio ([2]; 20 μmol/L, pretreatment 18 hrs prior to 2 Gy radiation): 3.32
- cell cycle effect [3]: arrested at G2/M phase
- killing effect on HepG2 compared with normal hepatic cells [4]: significantly higher
- G2/M arrest and apoptosis in normal hepatic cells [5]: did not result in G2/M arrest or significant cell apoptosis
- tumor inhibition (tumor cells): 80-95%
